These compounds were tested on TNF-alpha release in THP-1 cells (assay: LPS-induced TNF-alpha release in THP-1 cells). Conditions: Homo sapiens, THP-1, LPS-stimulated THP-1 cells; read-out: 50% inhibition in the LPS-induced TNF-alpha release in THP-1 cells assay at concentrations within the range.
Format: cell-based
Procedure, shortened: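 TNF-alpha in supernatants was quantified by sandwich ELISA against a log/log recombinant standard curve (0.125-16 ng/ml). Before this, THP-1 cells (1×10^6 cells/ml, serum-reduced) received compound at 1×10^−9 to 1×10^−6 M in 0.3% DMSO for 1 h, then LPS 20 μg/ml for 18 h.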

SMILES | IC50
Cc1ccc(-n2nc(C(C)(C)C)cc2NC(=O)Nc2cccc(CC3CCN(C(=O)C4CCCO4)CC3)c2)cc1 (centres unmarked) [Compound A66, 1-(5-tert-Butyl-2-p-tolyl-2H-pyrazol-3-yl)-3-{3-[1-(tetrahydro-furan-2-carbonyl)-piperidin-4ylmethyl]-phenyl}-urea] | 0.01 to 0.5 µM
Cc1ccc(-n2nc(C(C)(C)C)cc2NC(=O)Nc2ccc(CC3CCN(C(=O)c4cc(O)nc5ccccc45)CC3)cc2)cc1 [Compound A240, 1-(5-tert-Butyl-2-p-tolyl-2H-pyrazol-3-yl)-3-{4-[1-(2-hydroxy-quinoline-4-carbonyl)-piperidin-4-ylmethyl]-phenyl}-urea] | 0.01 to 0.5 µM
Cc1ccc(-n2nc(C(C)(C)C)cc2NC(=O)Nc2cccc(CC3CCN(C(=O)C4=Cc5sccc5CC4)CC3)c2)cc1 [Compound A102, 1-(5-tert-Butyl-2-p-tolyl-2H-pyrazol-3-yl)-3-{3-[1-(4,5-dihydro-benzo[b]thiophene-6-carbonyl)-piperidin-4-ylmethyl]-phenyl}-urea] | 0.01 to 0.5 µM
COc1ccc(CC(=O)N2CCC(Cc3ccc(NC(=O)Nc4cc(C(C)(C)C)nn4-c4ccc(C)cc4)cc3)CC2)cc1OC [Compound A262, 1-(5-tert-Butyl-2-p-tolyl-2H-pyrazol-3-yl)-3-(4-{1-[2-(3,4-dimethoxy-phenyl)-acetyl]-piperidin-4-ylmethyl}-phenyl)-urea] | 0.01 to 0.5 µM
COc1ccccc1CCC(=O)N1CCC(Cc2cccc(NC(=O)Nc3cc(C(C)(C)C)nn3-c3ccc(C)cc3)c2)CC1 [Compound A82, 1-(5-tert-Butyl-2-p-tolyl-2H-pyrazol-3-yl)-3-(3-{1-[3-(2-methoxy-phenyl)-propionyl]-piperidin-4-ylmethyl}-phenyl)-urea] | 0.01 to 0.5 µM

Next, values leading:

IC50 | SMILES
0.01 to 0.5 µM | Cc1ccc(-n2nc(C(C)(C)C)cc2NC(=O)Nc2ccc(CC3CCN(C(=O)c4cccc(C(C)C#N)c4)CC3)cc2)cc1 (centres unmarked) [Compound A272, 1-(5-tert-Butyl-2-p-tolyl-2H-pyrazol-3-yl)-3-(4-{1-[3-(cyano-methyl-methyl)-benzoyl]-piperidin-4-ylmethyl}-phenyl)-urea]
0.01 to 0.5 µM | Cc1ccc(-n2nc(C(C)(C)C)cc2NC(=O)Nc2cccc(CC3CCN(C(=O)CCc4ccco4)CC3)c2)cc1 [Compound A81, 1-(5-tert-Butyl-2-p-tolyl-2H-pyrazol-3-yl)-3-{3-[1-(3-furan-2-yl-propionyl)-piperidin-4-ylmethyl]-phenyl}-urea]
0.01 to 0.5 µM | Cc1ccc(-n2nc(C(C)(C)C)cc2NC(=O)Nc2cccc(CC3CCN(C(=O)c4ccc(CO)cc4)CC3)c2)cc1 [Compound A118, 1-(5-tert-Butyl-2-p-tolyl-2H-pyrazol-3-yl)-3-{3-[1-(4-hydroxymethyl-benzoyl)-piperidin-4-ylmethyl]-phenyl}-urea]

Source: US7541368B2, “Pyrazoles as inhibitors of tumor necrosis factor” (Aventis Pharmaceuticals Inc., priority 2003, dated 2009)
